molecular target: T1, human MGL from HeLa cells (Homo sapiens, UniProt Q99685); test: In vitro MGL activity assay: [glycerol-1,3-3H]-oleyl glycerol cleavage by MGL from HeLa cells; type: biochemical; conditions: 300 nM [Glycerol-1,3-3H]-oleyl glycerol, one hour
T1 construct: combining endogenously expressed MGL from HeLa cells with test compounds; endogenous in cells; host or cells: HeLa cells / cell homogenates
T1 sequence (Q99685 1-303): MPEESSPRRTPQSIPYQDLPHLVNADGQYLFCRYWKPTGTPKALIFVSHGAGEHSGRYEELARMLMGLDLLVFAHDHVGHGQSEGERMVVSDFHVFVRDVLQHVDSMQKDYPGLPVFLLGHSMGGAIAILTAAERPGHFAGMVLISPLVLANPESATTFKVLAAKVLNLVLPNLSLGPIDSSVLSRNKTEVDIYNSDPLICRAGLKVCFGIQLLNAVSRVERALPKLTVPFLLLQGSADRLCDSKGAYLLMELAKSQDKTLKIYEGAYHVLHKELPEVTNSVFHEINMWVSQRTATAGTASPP
Source text: MGL is the predominant hydrolase in HeLa cells/cell homogenates.

SMILES	IC50 [nM]
Cc1c(C(=O)N2CCc3c(nn(C)c3-c3cc(F)c(F)c(F)c3)[C@@H]2C)nc2ccccn12 [Example 398, [(7S)-2,7-Dimethyl-3-(3,4,5-trifluorophenyl)-5,7-dihydro-4H-pyrazolo[3,4-c]pyridin-6-yl]-(3-methylimidazo[1,2-a]pyridin-2-yl)methanone]	248
C[C@H]1c2nn(C)c(-c3cc(F)c(F)c(F)c3)c2CCN1C(=O)c1c(F)cnc2c1ccn2C [Example 370, [(7S)-2,7-Dimethyl-3-(3,4,5-trifluorophenyl)-5,7-dihydro-4H-pyrazolo[3,4-c]pyridin-6-yl]-(5-fluoro-1-methyl-pyrrolo[2,3-b]pyridin-4-yl)methanone]	0.3
C[C@H]1c2nn(C)c(-c3cccc4c3OC(F)(F)O4)c2CCN1C(=O)c1ccc2ncccc2c1 [Example 542, [(7S)-3-(2,2-Difluoro-1,3-benzodioxol-4-yl)-2,7-dimethyl-5,7-dihydro-4H-pyrazolo[3,4-c]pyridin-6-yl]-(6-quinolyl)methanone]	81.2
C[C@H]1c2nn(C)c(-c3cc(F)c(F)c(F)c3)c2CCN1C(=O)c1n[nH]c2ccccc12 [Example 361, [(7S)-2,7-Dimethyl-3-(3,4,5-trifluorophenyl)-5,7-dihydro-4H-pyrazolo[3,4-c]pyridin-6-yl]-(1H-indazol-3-yl)methanone]	14.6
C[C@H]1c2nn(C)c(-c3cc(F)c(F)c(F)c3)c2CCN1C(=O)c1c(F)cnc2[nH]ccc12 [Example 369, [(7S)-2,7-Dimethyl-3-(3,4,5-trifluorophenyl)-5,7-dihydro-4H-pyrazolo[3,4-c]pyridin-6-yl]-(5-fluoro-1H-pyrrolo[2,3-b]pyridin-4-yl)methanone]	1.88
C[C@H]1c2nn(C)c(-c3cc(F)c(F)c(F)c3)c2CCN1C(=O)c1c(F)cccc1-n1cccn1 [Example 603, [(7S)-2,7-Dimethyl-3-(3,4,5-trifluorophenyl)-5,7-dihydro-4H-pyrazolo[3,4-c]pyridin-6-yl]-(2-fluoro-6-pyrazol-1-yl-phenyl)methanone]	114

same assay, conditions: 300 nM [Glycerol-1,3-3H]-oleyl glycerol, one hour incubation

SMILES	IC50 [nM]
Cn1nc2c(c1-c1ccccc1)CCN(C(=O)c1cccc3c1ccn3C)C2 [Example 51, (1-Methyl-1H-indol-4-yl)(2-methyl-3-phenyl-2,4,5,7-tetrahydro-6H-pyrazolo[3,4-c]pyridin-6-yl)methanone]	15.6
COc1ccc(C(=O)N2CCc3c(nn(C)c3-c3cc(F)c(F)c(F)c3)[C@@H]2C)cc1 [Example 261, [(7S)-2,7-Dimethyl-3-(3,4,5-trifluorophenyl)-5,7-dihydro-4H-pyrazolo[3,4-c]pyridin-6-yl]-(4-methoxyphenyl)methanone]	29.4
CC1c2nn(C(F)F)c(-c3cc(F)cc(F)c3)c2CCN1C(=O)c1ccc2ncccc2c1 (stereo not drawn) [Example 155, (2-(Difluoromethyl)-3-(3,5-difluorophenyl)-7-methyl-2,4,5,7-tetrahydro-6H-pyrazolo[3,4-c]pyridin-6-yl)(quinolin-6-yl)methanone]	4.63
Cn1nc2c(c1-c1ccccc1)CCN(C(=O)c1c[nH]c3ccncc13)C2 [Example 83, (2-Methyl-3-phenyl-2,4,5,7-tetrahydro-6H-pyrazolo[3,4-c]pyridin-6-yl)(1H-pyrrolo[3,2-c]pyridin-3-yl)methanone]	1500
C[C@H]1c2nn(C)c(-c3cc(F)cc(F)c3)c2CCN1C(=O)c1cc(OCCF)ccc1Cl [Example 146, (2-Chloro-5-(2-fluoroethoxy)phenyl)(3-(3,5-difluorophenyl)-2,7-dimethyl-2,4,5,7-tetrahydro-6H-pyrazolo[3,4-c]pyridin-6-yl)methanone]	3.73
C[C@@H]1c2nn(C(F)F)c(-c3cc(F)c(F)c(F)c3)c2CCN1C(=O)c1ccc2ncccc2c1 [Example 233, (R)-(2-(Difluoromethyl)-7-methyl-3-(3,4,5-trifluorophenyl)-2,4,5,7-tetrahydro-6H-pyrazolo[3,4-c]pyridin-6-yl)(quinolin-6-yl)methanone]	550
